Assays:
morningglory [1] = experiment: Test A postemergence; type: in vivo, Ipomoea spp.
How it was run: (§1)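 Growth medium: loam soil blended with sand. Preemergence treatment used a directed soil spray right after planting; postemergence treatment targeted seedlings at one to two leaves (2–10 cm height). Response was judged by eye relative to untreated plants about 10 days later on a 0–100 control scale.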

corn [2] = experiment: Test A preemergence; type: in vivo, Zea mays; conditions: preemergence
How it was run: as §1

barnyardgrass [3] = experiment: Test A postemergence; type: in vivo, Echinochloa crus-galli
How it was run: as §1

morningglory [4] = experiment: Test A preemergence; type: in vivo, Ipomoea spp.; conditions: preemergence
How it was run: as §1

barnyardgrass [5] = experiment: Test A preemergence; type: in vivo, Echinochloa crus-galli; conditions: preemergence
How it was run: as §1

pigweed [6] = experiment: Test A postemergence; type: in vivo, Amaranthus retroflexus
How it was run: as §1

pigweed [7] = experiment: Test A preemergence; type: in vivo, Amaranthus retroflexus; conditions: preemergence
How it was run: as §1

rice = experiment: Test B flood; type: in vivo, Oryza sativa; conditions: 250 g ai/ha, visual rating on 0 to 100 scale (0 no effect, 100 complete control), 13 to 15 days
Protocol: (§2) Seeds selected from rice (Oryza sativa), sedge, umbrella (small-flower umbrella sedge Cyperus difformis), ducksalad (Heteranthera limosa), and barnyardgrass (Echinochloa crus-galli) were grown to the 2-leaf stage for testing. At time of treatment, test pots were flooded to 3 cm above the soil surface, treated by application of test compounds directly to the paddy water, and then maintained at that water depth for the duration of the test.
(§3) Treated plants and controls were maintained in a greenhouse for 13 to 15 days, after which time all species were compared to controls and visually evaluated. Plant response ratings, summarized in Table B, are based on a scale of 0 to 100 where 0 is no effect and 100 is complete control. A dash (-) response means no test result.

crabgrass, large [8] = experiment: Test A preemergence; type: in vivo, Digitaria sanguinalis; conditions: preemergence
How it was run: as §1

barnyardgrass [9] = experiment: Test B flood; type: in vivo, Echinochloa crus-galli; conditions: 250 g ai/ha, visual rating on 0 to 100 scale (0 no effect, 100 complete control), 13 to 15 days
Protocol: as §2, §3

velvetleaf [10] = experiment: Test A postemergence; type: in vivo, Abutilon theophrasti
How it was run: as §1

wheat [11] = experiment: Test A postemergence; type: in vivo, Triticum aestivum
How it was run: as §1

foxtail, giant [12] = experiment: Test A preemergence; type: in vivo, Setaria faberii; conditions: preemergence
How it was run: as §1

sedge, umbrella = experiment: Test B flood; type: in vivo, Cyperus difformis; conditions: 250 g ai/ha, visual rating on 0 to 100 scale (0 no effect, 100 complete control), 13 to 15 days
Protocol: as §2, §3

velvetleaf [13] = experiment: Test A preemergence; type: in vivo, Abutilon theophrasti; conditions: preemergence
How it was run: as §1

crabgrass, large [14] = experiment: Test A postemergence; type: in vivo, Digitaria sanguinalis
How it was run: as §1

foxtail, giant [15] = experiment: Test A postemergence; type: in vivo, Setaria faberii
How it was run: as §1

corn [16] = experiment: Test A postemergence; type: in vivo, Zea mays
How it was run: as §1

ducksalad = experiment: Test B flood; type: in vivo, Heteranthera limosa; conditions: 250 g ai/ha, visual rating on 0 to 100 scale (0 no effect, 100 complete control), 13 to 15 days
Protocol: as §2, §3

wheat [17] = experiment: Test A preemergence; type: in vivo, Triticum aestivum; conditions: preemergence
How it was run: as §1

[18] = Postemergence, 500 g ai/ha, 0 to 100 scale (0 no effect, 100 complete control)
[19] = postemergence, 125 g ai/ha, about 10 days, visual rating on 0 to 100 scale (0 no effect, 100 complete control)
[20] = 125 g ai/ha, visual injury approx. 10 days after treatment
[21] = 500 g ai/ha, visual injury after approx. 10 days, 0 to 100 scale (0 no effect, 100 complete control)
[22] = 125 g ai/ha, visual injury, 0 to 100 scale, approx. 10 days
[23] = Postemergence, 500 g ai/ha, visual rating after approx. 10 days, 0 to 100 scale (0 no effect, 100 complete control)

CCc1cc(C(=O)NCC(F)(F)F)nn1Cc1nnc(C(F)(F)F)o1 [Compound 146]
100: Morningglory plant response rating (morningglory [4]; [21]) | Pigweed plant response rating (0 to 100 scale) (pigweed [7]; [20]) | Pigweed plant response rating (pigweed [7]; [21]) | Crabgrass, Large plant response rating (crabgrass, large [8]; [21])
0: Corn plant response rating (0 to 100 scale) (corn [2]; [20]) | Barnyardgrass plant response rating (barnyardgrass [3]; [19]) | Barnyardgrass plant response rating (barnyardgrass [5]; [22]) | Plant response rating, Rice (rice) | Plant response rating, Barnyardgrass (barnyardgrass [9]) | Wheat plant response rating (wheat [11]; [18]) | Wheat plant response rating (wheat [11]; [19]) | Plant response rating, Sedge, Umbrella (sedge, umbrella) | Foxtail, Giant plant response rating (foxtail, giant [15]; [19]) | Corn plant response rating (corn [16]; [18]) | Corn plant response rating (corn [16]; [19]) | Plant response rating, Ducksalad (ducksalad) | Wheat plant response rating (0 to 100 scale) (wheat [17]; [20])
60: Pigweed plant response rating (pigweed [6]; [19]) | Velvetleaf plant response rating (velvetleaf [13]; [21])
90: Barnyardgrass plant response rating (barnyardgrass [5]; [21]) | Pigweed plant response rating (pigweed [6]; [18]) | Foxtail, Giant plant response rating (foxtail, giant [12]; [21])
80: Morningglory plant response rating (morningglory [1]; [18]) | Crabgrass, Large plant response rating (0 to 100 scale) (crabgrass, large [8]; [20]) | Crabgrass, Large plant response rating (crabgrass, large [14]; [18])
10: Barnyardgrass plant response rating (barnyardgrass [3]; [18]) | Velvetleaf plant response rating (velvetleaf [10]; [19]) | Foxtail, Giant plant response rating (0 to 100 scale) (foxtail, giant [12]; [20]) | Velvetleaf plant response rating (0 to 100 scale) (velvetleaf [13]; [20]) | Crabgrass, Large plant response rating (crabgrass, large [14]; [19]) | Wheat plant response rating (wheat [17]; [21])
20: Morningglory plant response rating (morningglory [1]; [19]) | Morningglory plant response rating (0 to 100 scale) (morningglory [4]; [20]) | Velvetleaf plant response rating (velvetleaf [10]; [18]) | Foxtail, Giant plant response rating (foxtail, giant [15]; [18])

CCc1cc(C(=O)NCC(F)(F)F)nn1Cc1cc(C(F)(F)F)nn1CC [Compound 119]
10: Barnyardgrass plant response rating (barnyardgrass [3]; [19]) | Wheat plant response rating (wheat [11]; [18])
30: Corn plant response rating (corn [2]; [21]) | Velvetleaf plant response rating (velvetleaf [13]; [21])
100: Morningglory plant response rating (morningglory [1]; [18]) | Pigweed plant response rating (pigweed [7]; [21]) | Crabgrass, Large plant response rating (crabgrass, large [8]; [21])
20: Morningglory plant response rating (morningglory [4]; [22]) | Foxtail, Giant plant response rating (foxtail, giant [12]; [22]) | Crabgrass, Large plant response rating (crabgrass, large [14]; [19]) | Foxtail, Giant plant response rating (foxtail, giant [15]; [19]) | Wheat plant response rating (wheat [17]; [21])
50: Velvetleaf plant response rating (velvetleaf [10]; [19]) | Foxtail, Giant plant response rating (foxtail, giant [15]; [18]) | Corn plant response rating (corn [16]; [18])
70: Barnyardgrass plant response rating (barnyardgrass [5]; [21]) | Crabgrass, Large plant response rating (crabgrass, large [8]; [22]) | Velvetleaf plant response rating (velvetleaf [10]; [18])
75: Plant response rating, Sedge, Umbrella (sedge, umbrella)
0: Corn plant response rating (corn [2]; [22]) | Barnyardgrass plant response rating (barnyardgrass [5]; [22]) | Plant response rating, Rice (rice) | Plant response rating, Barnyardgrass (barnyardgrass [9]) | Wheat plant response rating (wheat [11]; [19]) | Velvetleaf plant response rating (velvetleaf [13]; [22]) | Corn plant response rating (corn [16]; [19]) | Wheat plant response rating (wheat [17]; [22])
60: Barnyardgrass plant response rating (barnyardgrass [3]; [18]) | Morningglory plant response rating (morningglory [4]; [21]) | Pigweed plant response rating (pigweed [6]; [19]) | Crabgrass, Large plant response rating (crabgrass, large [14]; [18])
80: Pigweed plant response rating (pigweed [7]; [22]) | Foxtail, Giant plant response rating (foxtail, giant [12]; [21])
90: Morningglory plant response rating (morningglory [1]; [19]) | Pigweed plant response rating (pigweed [6]; [18])
40: Plant response rating, Ducksalad (ducksalad)

CCc1cc(C(=O)NCC(F)(F)F)nn1Oc1cccc(C(F)(F)F)n1 [Compound 87]
80: Crabgrass, Large plant response rating (crabgrass, large [8]; [21])
20: Morningglory plant response rating (morningglory [1]; [23])
40: Pigweed plant response rating (pigweed [7]; [21])
10: Morningglory plant response rating (morningglory [1]; [19]) | Morningglory plant response rating (morningglory [4]; [21]) | Pigweed plant response rating (pigweed [6]; [23]) | Velvetleaf plant response rating (velvetleaf [10]; [23]) | Crabgrass, Large plant response rating (crabgrass, large [14]; [23])
0: Corn plant response rating (corn [2]; [22]) | Corn plant response rating (corn [2]; [21]) | Barnyardgrass plant response rating (barnyardgrass [3]; Postemergence, 125 g ai/ha, 0 to 100 scale, 0 no effect, 100 complete control) | Barnyardgrass plant response rating (barnyardgrass [3]; [23]) | Morningglory plant response rating (morningglory [4]; [22]) | Barnyardgrass plant response rating (barnyardgrass [5]; [22]) | Barnyardgrass plant response rating (barnyardgrass [5]; [21]) | Pigweed plant response rating (pigweed [6]; [19]) | Pigweed plant response rating (pigweed [7]; [22]) | Plant response rating, Rice (rice) | Crabgrass, Large plant response rating (crabgrass, large [8]; [22]) | Plant response rating, Barnyardgrass (barnyardgrass [9]) | Velvetleaf plant response rating (velvetleaf [10]; [19]) | Wheat plant response rating (wheat [11]; [23]) | Wheat plant response rating (wheat [11]; [19]) | Foxtail, Giant plant response rating (foxtail, giant [12]; [22]) | Foxtail, Giant plant response rating (foxtail, giant [12]; [21]) | Plant response rating, Sedge, Umbrella (sedge, umbrella) | Velvetleaf plant response rating (velvetleaf [13]; [22]) | Velvetleaf plant response rating (velvetleaf [13]; [21]) | Crabgrass, Large plant response rating (crabgrass, large [14]; [19]) | Foxtail, Giant plant response rating (foxtail, giant [15]; [23]) | Foxtail, Giant plant response rating (foxtail, giant [15]; [19]) | Corn plant response rating (corn [16]; [23]) | Corn plant response rating (corn [16]; [19]) | Plant response rating, Ducksalad (ducksalad) | Wheat plant response rating (wheat [17]; [22]) | Wheat plant response rating (wheat [17]; [21])
